Reference: PubChem BioAssay (NCI)
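A five-concentration, 48-hour dose response in 96-well plates underlies each endpoint, interpolated linearly between surrounding concentrations. The concentration for full growth arrest is given as TGI.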

Columns and labels:
Assay in all cases: DTP human tumour cell line panel, 48 h
[1] = tested on: UACC-62 melanoma
[2] = tested on: HCC-2998 colon
[3] = tested on: LXFL 529 NSCLC
[4] = tested on: ACHN renal
[5] = tested on: DMS 273 small cell lung
[6] = tested on: COLO 205 colon
[7] = tested on: DLD-1 colon
[8] = tested on: SNB-78 CNS
[9] = tested on: K-562 leukemia
[10] = tested on: XF 498 CNS
[11] = tested on: SN12C renal
[12] = tested on: M14 melanoma
[13] = tested on: KM20L2 colon
[14] = tested on: HCT-15 colon
[15] = tested on: CCRF-CEM leukemia
[16] = tested on: A549 NSCLC
[17] = tested on: LOX IMVI melanoma
[18] = tested on: IGROV1 ovarian
[19] = tested on: U251 CNS
[20] = tested on: NCI-H460 lung
[21] = tested on: SK-OV-3 ovarian
[22] = tested on: M19-MEL melanoma
[23] = tested on: MOLT-4 leukemia
[24] = tested on: RPMI-8226 leukemia
[25] = tested on: OVCAR-4 ovarian
[26] = tested on: MALME-3M melanoma
[27] = tested on: HOP-92 NSCLC
[28] = tested on: 786-0 renal
[29] = tested on: HOP-62 NSCLC
[30] = tested on: SW-620 colon
[31] = tested on: UACC-257 melanoma
[32] = tested on: SNB-19 CNS
[33] = tested on: SF-539 CNS
[34] = tested on: SF-295 CNS
[35] = tested on: OVCAR-3 ovarian
[36] = tested on: NCI-H522 lung
[37] = tested on: NCI-H23 lung
[38] = tested on: HOP-18 NSCLC
[39] = tested on: CAKI-1 renal
[40] = tested on: SF-268 CNS
[41] = tested on: HCT-116 colon
[42] = tested on: NCI-H226 lung
[43] = tested on: EKVX NSCLC
[44] = tested on: SK-MEL-5 melanoma
[45] = tested on: UO-31 renal
[46] = tested on: SK-MEL-2 melanoma
[47] = tested on: HT29 colon
[48] = tested on: TK-10 renal
[49] = tested on: DMS 114 small cell lung
[50] = tested on: OVCAR-8 ovarian
[51] = tested on: SNB-75 CNS
[52] = tested on: SR leukemia
[53] = tested on: SK-MEL-28 melanoma
[54] = tested on: HL-60(TB) leukemia
[55] = tested on: KM12 colon
[56] = tested on: OVCAR-5 ovarian

CCOC(=O)C(Cc1ccc2ccccc2c1)(Cc1ccc2ccccc2c1)C(C)=O
TGI [1]: > 10 µM | TGI [2]: 8.51 µM | TGI [3]: > 10 µM | TGI [4]: > 10 µM | TGI [5]: > 10 µM | TGI [6]: > 10 µM | TGI [7]: > 10 µM | TGI [8]: > 10 µM | TGI [9]: > 10 µM | TGI [10]: > 10 µM | TGI [11]: > 10 µM | TGI [12]: > 10 µM | TGI [13]: > 10 µM | TGI [14]: > 10 µM | TGI [15]: > 10 µM | TGI [16]: > 10 µM | TGI [17]: > 10 µM | TGI [18]: > 10 µM | TGI [19]: > 10 µM | TGI [20]: > 10 µM | TGI [21]: > 10 µM | TGI [22]: > 10 µM | TGI [23]: 8.61 µM | TGI [24]: 6.58 µM | TGI [25]: > 10 µM | TGI [26]: > 10 µM | TGI [27]: > 10 µM | TGI [28]: > 10 µM | TGI [29]: > 10 µM | TGI [30]: > 10 µM

CC1=C2C(=O)O[C@@H](c3ccoc3)[C@]2(C)CCC1
TGI [31]: > 100 µM | TGI [32]: > 100 µM | TGI [1]: > 100 µM | TGI [2]: > 100 µM | TGI [33]: > 100 µM | TGI [3]: > 100 µM | TGI [34]: > 100 µM | TGI [4]: > 100 µM | TGI [35]: > 100 µM | TGI [6]: > 100 µM | TGI [36]: > 100 µM | TGI [37]: > 100 µM | TGI [7]: > 100 µM | TGI [8]: > 100 µM | TGI [38]: > 100 µM | TGI [39]: > 100 µM | TGI [40]: > 100 µM | TGI [41]: > 100 µM | TGI [42]: > 100 µM | TGI [43]: > 100 µM | TGI [9]: > 100 µM | TGI [10]: > 100 µM | TGI [44]: > 100 µM | TGI [12]: > 100 µM | TGI [13]: > 100 µM | TGI [14]: > 100 µM | TGI [15]: > 100 µM | TGI [45]: > 100 µM | TGI [46]: > 100 µM | TGI [47]: > 100 µM | TGI [16]: > 100 µM | TGI [48]: > 100 µM | TGI [17]: > 100 µM | TGI [49]: > 100 µM | TGI [18]: > 100 µM | TGI [50]: > 100 µM | TGI [19]: > 100 µM | TGI [20]: > 100 µM | TGI [51]: > 100 µM | TGI [52]: > 100 µM | TGI [53]: > 100 µM | TGI [21]: > 100 µM | TGI [54]: > 100 µM | TGI [22]: > 100 µM | TGI [23]: > 100 µM | TGI [24]: > 100 µM | TGI [25]: > 100 µM | TGI [55]: > 100 µM | TGI [56]: > 100 µM | TGI [26]: > 100 µM | TGI [27]: > 100 µM | TGI [28]: > 100 µM | TGI [29]: > 100 µM | TGI [30]: > 100 µM
